Experimental data published in US10087217B2 (priority 2013, dated 2018).

Test system: U87 cells
Experiment: Competitive inhibition of integrin targeted transduction mediated by AAV2^N587+1/azido+RGD
Assay type: cell-based

Q: dibenzocyclooctyne [DIBO] was tested. Which “competitive inhibition of DIBO-RGD coupling effect” value did it give?
A: The value was “competitively inhibit”.
